# Results from patent US11939403B2, “Peptide-peptoid scaffolds” (The Regents of the University of California, priority 2020, dated 2024).
# “And” between values parts separate entries of the source, which are not always exact repeats. Equal values may be shown once. Read-outs that look alike come from different tables or passages of the source. Marks after values point to notes of the source that are not given here. Square brackets hold non-standard residues; d marks the D form. Peptide text beside a SMILES is read from it. Gly(N-CH2-oxan-4-yl) = O=C(O)CNCC1CCOCC1; NCyclohexylmethylGly = O=C(O)CNCC1CCCCC1; NMeL = CN[C@@H](CC(C)C)C(=O)O; NMeA = CN[C@@H](C)C(=O)O; NEtG = CCNCC(=O)O
# Columns and labels:
# [1] = PAMPA permeability of pure compounds under sink conditions; format: in vitro ADME; settings: detergents in donor and acceptor wells (sink conditions); for Papp: PAMPA, read-out: PAMPA Perm.
# Experimental: PAMPA permeability studies on these six pure compounds were performed initially under the same conditions as those used in the original library screen, using a concentration of 1 μM in the donor well based on the estimated concentration of each compound in the original library. […] Without being bound by theory, it was hypothesized that the pure compounds were precipitating in the donor well or adhering to the walls of the apparatus, and that as mixtures they could act as pseudo-detergents (or mutual blocking agents) to help prevent escape from solution (such as through aggregation or adsorption). Therefore, the PAMPA permeabilities of the pure compounds using detergents in the donor and acceptor wells as “sink” conditions were re-investigated. Using these conditions, the permeability trends were similar to those observed in the Libraries. […] The PAMPA permeabilities of the scaffold A compounds were high (large) across the entire A Log P range, whereas the permeabilities of scaffold B compounds trended upward (greater) along with A Log P.
# P-gp [2] = target: T1, P-gp (Homo sapiens, UniProt P08183); assay: in vitro; settings: MDCK, P-gp R-value
# Serum protein binding = format: in vitro ADME; settings: bound fractions in rat plasma; for fraction unbound: rat, plasma
# [3] = Oral bioavailability in mice; format: in vivo; settings: for bioavailability / BA: mouse; for bioavailability: po
# Description: Based on their permeabilities in PAMPA and MDCK cells, the in vivo pharmacokinetics of 5 of these 6 pure compound library members were investigated (B03 was not included in the oral PK study, because of its low (small) PAMPA and MDCK permeabilities). […] To test whether metabolism and efflux were the main factors contributing to the low oral bioavailability (BA), mice were pretreated with either the CYP inhibitor […] (ABT), the P-gp inhibitor elacridar (GF120918), or a combination of both the CYP and P-gp inhibitors. […] Combining the inhibitors also produced oral bioavailabilities that reflected the compounds' relative PAMPA permeabilities.
# P-gp [4] = target: T1, P-gp; settings: MDCK, 10 μM
# [5] = Experimental octanol/water partition coefficient Log D (oct/w); settings: for logD: octanol/water, pH 7.4, LogD (oct/w)
# Experimental: (§1) For each of these six pure compounds, calculated (atomistic) octanol/water partition coefficient (A Log P), aqueous solubility (Aq. Sol), PAMPA and MDCK permeabilities, experimental octanol/water partition coefficient (Log D (oct/w)), P-gp efflux ratios, microsomal stability, and serum protein binding were determined (Table 1 and FIG. 5).
# Microsomal stability = format: in vitro ADME; settings: remaining rate after 30 min of incubation with pooled liver microsomes (0.1 mg/mL, rats); for remaining at 0.5 h: rat
# in vitro = settings: dog, MDCK, MDCK Perm.
# Experimental: (§2) Permeabilities were also measured in a Madin-Darby canine kidney (MDCK) permeability assay, in which the passage of the compound through a semipermeable membrane coated with MDCK cells is measured.
# [6] = Aqueous solubility, Japanese Pharmacopoeia Second Fluid (pH 6.8); format: physicochemical; settings: for Aq. Sol.: Japanese Pharmacopoeia Second Fluid (pH 6.8); for solubility: Japanese Pharmacopoeia Second Fluid
# Experimental: as §1
# [7] = PAMPA permeability under standard (library screen) conditions; format: in vitro ADME; settings: pure compounds, donor well concentration 20 μM
# Description: Libraries A and B were synthesized separately as mixtures using solid phase split-pool peptide synthesis, incorporating peptoid side chains as primary amines using the submonomer method. (Zuckermann R N et al. Efficient Method for the Preparation of Peptoids [Oligo(N-Substituted Glycines)] by Submonomer Solid-Phase Synthesis. J Am Chem Soc. (1992) 114, 10646-7. doi: DOI 10.1021/ja00052a076. PubMed PMID: WOS:A1992KD71700076.) The libraries were cleaved, cyclized in solution, and roughly purified using solid phase extraction on C18 media. Parallel artificial membrane permeability assays (PAMPA) were used to measure passive permeabilities; PAMPA permeabilities within each library varied parabolically as a function of A Log P (FIG. 2A).
# PAMPA permeability studies on these six pure compounds were performed initially under the same conditions as those used in the original library screen, […] of each compound in the original library. […] Without being bound by theory, it was hypothesized that the pure compounds were precipitating in the donor well or adhering to the walls of the apparatus, and that as mixtures they could act as pseudo-detergents (or mutual blocking agents) to help prevent escape from solution (such as through aggregation or adsorption). […]
# [8] = pH 7.4
# Experimental: as §1
# physchem = settings: pH 7.4, LogD (oct/w)
# Experimental: as §1
# [9] = in vivo, mice, oral, no inhibitors, read-out: Oral bioavailability, no inhib.
# [10] = in vivo, mice, oral, pretreatment with 1-aminobenztriazole (CYP inhibitor), read-out: Oral bioavailability, +CYP inhib.
# [11] = in vivo, mice, oral, pretreatment with 1-aminobenztriazole and GF120918, read-out: Oral bioavailability, +CYP inhib. +P-gp inhib.
# [12] = not told, mice, oral, pretreatment with GF120918 (P-gp inhibitor), read-out: Oral bioavailability, +P-gp inhib.
# [13] = pH 6.8, pure compounds, values in text, read-out: Aqueous solubility
# [14] = pH 6.8, Japanese Pharmacopoeia Second Fluid (pH 6.8), read-out: Aq. Sol.
# [15] = mice, oral, pretreatment with 1-aminobenztriazole and GF120918
# [16] = mice, oral, pretreatment with GF120918 (P-gp inhibitor)
# Experimental for MDCK cells: as §2
# T1 sequence (P08183 whole entry): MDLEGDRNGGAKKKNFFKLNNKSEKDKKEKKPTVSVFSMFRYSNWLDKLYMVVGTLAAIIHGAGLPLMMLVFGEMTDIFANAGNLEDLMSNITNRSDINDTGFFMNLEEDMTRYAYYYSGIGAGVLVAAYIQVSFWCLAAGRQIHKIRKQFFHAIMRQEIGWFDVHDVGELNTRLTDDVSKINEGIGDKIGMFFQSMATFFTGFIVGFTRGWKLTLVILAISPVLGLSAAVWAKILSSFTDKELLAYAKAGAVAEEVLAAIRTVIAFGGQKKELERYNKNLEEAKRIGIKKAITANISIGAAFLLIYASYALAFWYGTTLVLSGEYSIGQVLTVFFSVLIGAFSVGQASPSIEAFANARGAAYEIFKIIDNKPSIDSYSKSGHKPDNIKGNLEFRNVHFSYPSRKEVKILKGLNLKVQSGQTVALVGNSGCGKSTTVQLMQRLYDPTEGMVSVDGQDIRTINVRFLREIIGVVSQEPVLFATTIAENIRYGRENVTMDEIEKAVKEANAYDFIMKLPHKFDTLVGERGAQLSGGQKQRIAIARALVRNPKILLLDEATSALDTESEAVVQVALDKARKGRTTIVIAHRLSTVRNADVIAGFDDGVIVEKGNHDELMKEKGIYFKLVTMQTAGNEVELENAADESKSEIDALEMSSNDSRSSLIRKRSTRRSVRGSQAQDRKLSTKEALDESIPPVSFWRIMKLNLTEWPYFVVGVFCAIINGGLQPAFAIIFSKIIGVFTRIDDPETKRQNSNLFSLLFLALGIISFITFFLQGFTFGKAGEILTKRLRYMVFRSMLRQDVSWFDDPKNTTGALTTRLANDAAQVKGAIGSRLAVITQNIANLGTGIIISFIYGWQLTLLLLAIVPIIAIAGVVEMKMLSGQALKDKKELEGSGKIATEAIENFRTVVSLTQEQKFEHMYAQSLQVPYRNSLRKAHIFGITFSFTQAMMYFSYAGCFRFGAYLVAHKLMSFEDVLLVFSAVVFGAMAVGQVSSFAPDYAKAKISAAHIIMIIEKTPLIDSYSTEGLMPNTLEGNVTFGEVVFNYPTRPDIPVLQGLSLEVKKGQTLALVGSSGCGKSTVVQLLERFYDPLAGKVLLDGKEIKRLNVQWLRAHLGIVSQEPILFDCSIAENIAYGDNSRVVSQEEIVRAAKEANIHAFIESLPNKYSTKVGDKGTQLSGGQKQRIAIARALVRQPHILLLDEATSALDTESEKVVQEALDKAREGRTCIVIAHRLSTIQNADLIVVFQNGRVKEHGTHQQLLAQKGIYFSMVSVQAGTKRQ
Papp [1],PAMPA Perm. [1],efflux ratio at 10 μM (P-gp [2]),fraction unbound (Serum protein binding),"bioavailability [3, 9]","bioavailability [3, 10]","bioavailability [3, 11]","bioavailability [3, 12]",P-gp R-value (P-gp [4]),logD [5],remaining at 0.5 h (Microsomal stability),Microsomal Stability (Microsomal stability),Papp (in vitro),Aq. Sol. [6],"solubility [6, 13]",Serum Protein Binding (Serum protein binding),MDCK Perm. (MDCK cells; dog),"solubility [6, 14]","Oral bioavailability, +CYP inhib. +P-gp inhib. [3, 15]",PAMPA membrane transport [7],Compound,further results
18 ×10⁻⁶ cm/s,17.2 ×10⁻⁶ cm/s,6,0.31,1%,2%,39%,4%,6.4,2.9,64%,64%,0.4 ×10⁻⁶ cm/s,1.900 mg/mL,1900 µg/mL,–,–,–,–,–,CCN1CC(=O)N[C@@H](CC(C)C)C(=O)N(C)[C@@H](C)C(=O)N[C@@H](CC(C)C)C(=O)N2CCC[C@@H]2C(=O)N(CC2CCOCC2)CC(=O)N[C@@H](CC(C)C)C(=O)N(C)[C@@H](C)C(=O)N[C@@H](C)C(=O)N2CCC[C@@H]2C1=O [Compound A03] (cyclo([NEtG]L[NMeA]L[dP][Gly(N-CH2-oxan-4-yl)]L[NMeA]A[dP])),"bioavailability ([3]; in vivo, 30 mg/kg, oral dose 30 mg/kg, no inhibitors, based on AUC at 1 mg/kg IV dose, read-out: BA): 11.5%; bioavailability ([3]; in vivo, 100 mg/kg, oral dose 100 mg/kg, no inhibitors, based on AUC at 1 mg/kg IV dose, read-out: BA): 22.1%; bioavailability ([3]; in vivo, 200 mg/kg, oral dose 200 mg/kg, no inhibitors, based on AUC at 1 mg/kg IV dose, read-out: BA): 49.8%; BA ([3]; oral dose 3 mg/kg, no inhibitors, based on AUC at 1 mg/kg IV dose): 1% and 0.99%; BA ([3]; oral dose 200 mg/kg, no inhibitors, based on AUC at 1 mg/kg IV dose): 50%"
18 ×10⁻⁶ cm/s,18.8 ×10⁻⁶ cm/s,–,–,5%,31%,59%,7%,–,4.1,33%,33%,25 ×10⁻⁶ cm/s,0.070 mg/mL,70 µg/mL,99% and >99.8%,24.7 ×10⁻⁶ cm/s,6.8 µg/mL,–,–,CCN1CC(=O)N[C@@H](CC(C)C)C(=O)N(C)[C@@H](C)C(=O)N[C@@H](CC(C)C)C(=O)N2CCC[C@@H]2C(=O)N(CC2CCCCC2)CC(=O)N[C@@H](CC(C)C)C(=O)N(C)[C@@H](C)C(=O)N[C@@H](Cc2ccccc2)C(=O)N2CCC[C@@H]2C1=O [Compound A08] (cyclo(F[dP][NEtG]L[NMeA]L[dP][NCyclohexylmethylGly]L[NMeA])),–
35 ×10⁻⁶ cm/s,35.7 ×10⁻⁶ cm/s,43,0.01,2%,5%,> 100%,22%,46.9,4.1,67%,67%,3.1 ×10⁻⁶ cm/s,0.600 mg/mL,600 µg/mL,98%,–,640 µg/mL,105^c %,some membrane transport was observed,CCN1CC(=O)N[C@@H](CC(C)C)C(=O)N(C)[C@@H](C)C(=O)N[C@@H](CC(C)C)C(=O)N2CCC[C@@H]2C(=O)N(CC2CCOCC2)CC(=O)N[C@@H](CC(C)C)C(=O)N(C)[C@@H](C)C(=O)N[C@@H](Cc2ccccc2)C(=O)N2CCC[C@@H]2C1=O [Compound A09] (cyclo([NEtG]L[NMeA]L[dP][Gly(N-CH2-oxan-4-yl)]L[NMeA]F[dP])),LogD (oct/w) ([5]; pH 7.4): >4.1
–,–,1.4,0.43,–,–,–,–,–,2.1,94%,94%,0.3 ×10⁻⁶ cm/s,1.900 mg/mL,1900 µg/mL,56%,–,–,–,–,CCN1CC(=O)N[C@@H](CC(C)C)C(=O)N2CCC[C@@H]2C(=O)N(C)[C@@H](CC(C)C)C(=O)N[C@@H](C)C(=O)N(CC2CCOCC2)CC(=O)N[C@@H](C)C(=O)N2CCC[C@@H]2C(=O)N(C)[C@@H](CC(C)C)C(=O)N[C@@H](C)C1=O [Compound B03] (cyclo(A[NEtG]L[dP][NMeL]A[Gly(N-CH2-oxan-4-yl)]A[dP][NMeL])),–
50 ×10⁻⁶ cm/s,>50 ×10⁻⁶ cm/s,–,–,–,–,> 100%,–,19.2,–,53%,53%,–,–,20 µg/mL,–,15.3 ×10⁻⁶ cm/s,–,101^c %,some membrane transport was observed,CCN1CC(=O)N[C@@H](CC(C)C)C(=O)N2CCC[C@@H]2C(=O)N(C)[C@@H](CC(C)C)C(=O)N[C@@H](C)C(=O)N(CC2CCCCC2)CC(=O)N[C@@H](Cc2ccccc2)C(=O)N2CCC[C@@H]2C(=O)N(C)[C@@H](CC(C)C)C(=O)N[C@@H](C)C1=O [Compound B08] (cyclo([NEtG]L[dP][NMeL]A[NCyclohexylmethylGly]F[dP][NMeL]A)),"Oral bioavailability, no inhib. ([3]; mice, oral, no inhibitors): 6%; Oral bioavailability, +CYP inhib. ([3]; mice, oral, pretreatment with 1-aminobenztriazole (CYP inhibitor)): 148^c %; Oral bioavailability, +P-gp inhib. [3, 16]: 13%; MDCK Perm. (MDCK cells): 15 ×10⁻⁶ cm/s; LogD (oct/w) [8]: 4.8; logD (physchem): > 4.8"
0.7 ×10⁻⁶ cm/s,1.4 ×10⁻⁶ cm/s,–,–,0.7%,1.5%,–,–,10,–,90%,90%,–,2.200 mg/mL,2200 µg/mL,–,0.4 ×10⁻⁶ cm/s,–,14%,–,CCN1CC(=O)N[C@@H](CC(C)C)C(=O)N2CCC[C@@H]2C(=O)N(C)[C@@H](CC(C)C)C(=O)N[C@@H](C)C(=O)N(CC2CCOCC2)CC(=O)N[C@@H](Cc2ccccc2)C(=O)N2CCC[C@@H]2C(=O)N(C)[C@@H](CC(C)C)C(=O)N[C@@H](C)C1=O [Compound B09] (cyclo(A[NEtG]L[dP][NMeL]A[Gly(N-CH2-oxan-4-yl)]F[dP][NMeL])),"Oral bioavailability, +P-gp inhib. [3, 16]: 3%; logD (physchem): 3.6"
